Data published in patent US20250276078A1, “Camptothecin Derivative And Ligand-drug Conjugate Thereof” (Baili-Bio (Chengdu) Pharmaceutical Co., Ltd., priority 2020, published 2025).
Like-named read-outs stand apart in the source and are kept apart here.

Columns and labels:
[1] = system: MDA-MB-468; assay: Cell activity test of camptothecin chiral derivatives (MTS); format: cell-based
Method: (§1) Cell-based in vitro experiments are used to determine cell survival, cytotoxicity and programmed cell death induced by camptothecin drugs disclosed in the present invention.
The in vitro efficacy of camptothecin was determined by cell proliferation test. CellTiter 96® Aqueous One Solution Cell Proliferation Assay is commercially available (Promega Corp., Madison, WI). CellTiter96® Aqueous One Solution Cell Proliferation Assay (a) is a test reagent that can be used to measure the number of viable cells from cell proliferation and cytotoxicity tests by colorimetric assay. […] PES has enhanced chemical stability, which allows it to be mixed with MTS to form stable solutions. MTS (Owen's reagent) is reduced by cellular organisms into a variety of colored methylate products, which can be dissolved directly in the medium. This transformation is most likely accomplished with the help of NADPH or NADH produced by dehydrogenase in metabolically active cells. For detection, appropriate amount of CellTiter96® Aqueous One Solution Reagent is added directly into the medium of culture plate hole, incubated for 1-4 hours, and the absorbance value of 490 nm is read with enzyme label instrument.
(§2) The amount of methylate detected at 490 nm is proportional to the number of live cells in the culture. Due to the dissolubility of the methyls of MTS in tissue medium, CellTiter 96® Aqueous One Solution is performed with fewer steps than the MTT or INT methods.
The 96-well plates were uniformly inoculated with appropriate cell density and incubated at 37° C. in carbon dioxide incubator. […] Camptothecin drug was diluted in the medium (initial concentration was 1 uM, 7 times diluted, with 8 concentration points. The last two columns were control group (i.e., cell+medium, no drug treatment) and blank group (i.e., cell-free, only containing medium, for background subtraction). After fully mixing the drug, the drug was added into the corresponding cell hole and incubated at 37° C. in a carbon dioxide incubator for 3 days. After 3 days, 20 ul MTS (Promegm, G3581) were added to each well for 2 h, and a machine reader (from Molecular Device, model: SpectraMAX190) took readings at 490 nM. By detecting the activity of dehydrogenase in mitochondria, IC50 was calculated to evaluate the inhibitory effect of camptothecin on cell proliferation.

[2] = Log P value test (partition coefficient in n-octane (oil) and water); format: physicochemical
Text: The log P values are closely related to water solubility, membrane permeability, in vivo ADME process and affinity between the compound and the receptor, which play a key role in the process of the compound's penetration through the biofilm. The log P value was obtained by testing the partition coefficient of camptothecin drug in n-octane (oil) and water, the results are shown as follows: […]

[3] = system: SK-BR-3; assay: Cell activity test of camptothecin chiral derivatives (MTS); format: cell-based
Method: as §1
(§3) The in vitro efficacy of camptothecin was determined by cell proliferation test. CellTiter 96® Aqueous One Solution Cell Proliferation Assay is commercially available (Promega Corp., Madison, WI). CellTiter96® Aqueous One Solution Cell Proliferation Assay (a) is a test reagent that can be used to measure the number of viable cells from cell proliferation and cytotoxicity tests by colorimetric assay. The reagent contains a new tetrazolium compound [3-(4, 5-dimethylthiazol-2-yl)-5-(3-carboxymethoxyphenyl)-2-(4-sulfophenyl)-2h-Tetrazolium, inner salt; MTS] and an electron coupling agent (phenazine ethosulfate; PES). PES has enhanced chemical stability, which allows it to be mixed with MTS to form stable solutions. MTS (Owen's reagent) is reduced by cellular organisms into a variety of colored methylate products, which can be dissolved directly in the medium. This transformation is most likely accomplished with the help of NADPH or NADH produced by dehydrogenase in metabolically active cells. For detection, appropriate amount of CellTiter96® Aqueous One Solution Reagent is added directly into the medium of culture plate hole, incubated for 1-4 hours, and the absorbance value of 490 nm is read with enzyme label instrument.
as §2
(§4) The 96-well plates were uniformly inoculated with appropriate cell density and incubated at 37° C. in carbon dioxide incubator. 24 hours later, the cells were confirmed to be normal under the microscope, and camptothecin drugs were administered. Camptothecin drug was diluted in the medium (initial concentration was 1 uM, 7 times diluted, with 8 concentration points. The last two columns were control group (i.e., cell+medium, no drug treatment) and blank group (i.e., cell-free, only containing medium, for background subtraction). After fully mixing the drug, the drug was added into the corresponding cell hole and incubated at 37° C. in a carbon dioxide incubator for 3 days. After 3 days, 20 ul MTS (Promegm, G3581) were added to each well for 2 h, and a machine reader (from Molecular Device, model: SpectraMAX190) took readings at 490 nM. By detecting the activity of dehydrogenase in mitochondria, IC50 was calculated to evaluate the inhibitory effect of camptothecin on cell proliferation. The corresponding test results of camptothecin chiral derivative IC50 (nM) were as follows: PGP-99 T2

[4] = system: A431; assay: as above; format: cell-based
Method: as §1, §3, §2, §4

[5] = system: SW620; assay: as above; format: cell-based
Method: as §1, §3, §2, §4

[6] = system: BxPc-3; assay: as above; format: cell-based
Method: as §1, §3, §2, §4

[7] = Homo sapiens, MDA-MB-468, 72 h, read-out: IC50
[8] = Homo sapiens, 72 h, SK-BR-3, 3 days, read-out: IC50
[9] = Homo sapiens, A-431, 72 h, A431, 3 days, read-out: IC50
[10] = Homo sapiens, SW-620, 72 h, SW620, 3 days, read-out: IC50
[11] = Homo sapiens, 72 h, BxPc-3, 3 days, read-out: IC50

Compound | IC50 [1, 7] [nM] | logD hydrocarbon water ([2]; LogP) | IC50 [3, 8] [nM] | IC50 [4, 9] [nM] | IC50 [5, 10] [nM] | IC50 [6, 11] [nM] | other results
CC[C@@]1(O)C(=O)OCc2c1cc1n(c2=O)Cc2c-1nc1cc(F)c(C)c3c1c2[C@H](NC(=O)CO)CC3 [Compound 2] |  |  |  |  |  |  | IC50 ([1]; Homo sapiens, MDA-MB-468, 72 h): 0.002 nM; logD hydrocarbon water ([2]; n-octane (oil) / water, read-out: LogP): 1.8; IC50 ([3]; Homo sapiens, SK-BR-3, 72 h): 1.78 nM; IC50 ([4]; Homo sapiens, A-431, 72 h): 4.5 nM; IC50 ([5]; Homo sapiens, SW-620, 72 h): 2.89 nM; IC50 ([6]; Homo sapiens, BXPC-3, 72 h): 4 nM
CC[C@@]1(O)C(=O)OCc2c1cc1n(c2=O)Cc2c-1nc1cc(F)c(C)c3c1c2[C@H](NC(=O)[C@H](C)O)CC3 [Compound 3] | 0.22 | 1.6 | 15 | 4.19 | 1.29 | 3.66 | 
CC[C@@]1(O)C(=O)OCc2c1cc1n(c2=O)Cc2c-1nc1cc(F)c(C)c3c1c2[C@H](NC(=O)[C@@H](C)O)CC3 [Compound 4] |  | 1.9 |  | 3.1 | 0.92 | 2.85 | 
CC[C@@]1(O)C(=O)OCc2c1cc1n(c2=O)Cc2c-1nc1cc(F)c(C)c3c1c2[C@@H](NC(=O)[C@H](O)C(F)(F)F)CC3 [Compound 5] | 8.91 | 1.9 | 8.49 | 2.83 | 0.866 | 1.73 | 
CC[C@@]1(O)C(=O)OCc2c1cc1n(c2=O)Cc2c-1nc1cc(F)c(C)c3c1c2[C@H](NC(=O)[C@@H](O)C(F)(F)F)CC3 [Compound 6] |  | 1.9 | 9.1 | 0.689 | 0.093 | 0.416 | 
CC[C@@]1(O)C(=O)OCc2c1cc1n(c2=O)Cc2c-1nc1cc(F)c(C)c3c1c2[C@H](NC(=O)[C@@H](O)C1CC1)CC3 [Compound 7] | < 0.001 | 1.7 | < 0.01 | 0.961 | 0.894 | 0.801 | 
CC[C@@]1(O)C(=O)OCc2c1cc1n(c2=O)Cc2c-1nc1cc(F)c(C)c3c1c2[C@H](NC(=O)[C@H](O)C1CC1)CC3 [Compound 8] | < 0.001 | 1.8 | < 0.01 | 1.84 | 1.18 | 1.1 | 
CC[C@@]1(O)C(=O)OCc2c1cc1n(c2=O)Cc2c-1nc1cc(F)c(C)c3c1c2[C@H](NC(=O)C1(CO)CCC1)CC3 [Compound 9] | 0.525 | 1.6 | 7.32 | 1.52 | 1.11 | 1.07 | 
CC[C@@]1(O)C(=O)OCc2c1cc1n(c2=O)Cc2c-1nc1cc(F)c(C)c3c1c2[C@@H](NC(=O)[C@H](C)O)CC3 [Compound 11, reference compound] |  | 2.5 |  |  |  |  | 
CC[C@@]1(O)C(=O)OCc2c1cc1n(c2=O)Cc2c-1nc1cc(F)c(C)c3c1c2[C@@H](NC(=O)[C@@H](C)O)CC3 [Compound 12, reference compound] |  | 2.5 |  |  |  |  | 
CC[C@@]1(O)C(=O)OCc2c1cc1n(c2=O)Cc2c-1nc1cc(F)c(C)c3c1c2[C@@H](NC(=O)[C@H](O)C(F)(F)F)CC3 [Compound 13, reference compound] |  |  |  |  |  |  | LogP [2]: 2.6
CC[C@@]1(O)C(=O)OCc2c1cc1n(c2=O)Cc2c-1nc1cc(F)c(C)c3c1c2[C@@H](NC(=O)[C@@H](O)C(F)(F)F)CC3 [Compound 14, reference compound] |  | 2.6 |  |  |  |  | 
CC[C@@]1(O)C(=O)OCc2c1cc1n(c2=O)Cc2c-1nc1cc(F)c(C)c3c1c2[C@@H](NC(=O)[C@@H](O)C1CC1)CC3 [Compound 15, reference compound] |  | 2.7 |  |  |  |  | 
CC[C@@]1(O)C(=O)OCc2c1cc1n(c2=O)Cc2c-1nc1cc(F)c(C)c3c1c2[C@@H](NC(=O)[C@H](O)C1CC1)CC3 [Compound 16, reference compound] |  | 2.6 |  |  |  |  | 
CC[C@@]1(O)C(=O)OCc2c1cc1n(c2=O)Cc2c-1nc1cc(F)c(C)c3c1c2[C@@H](NC(=O)CO)CC3 [Dxd, reference compound] |  |  |  |  |  |  | IC50 ([1]; MDA-MB-468, 3 days, read-out: IC50): 10.7 nM; IC50 ([3]; SK-BR-3, 3 days, read-out: IC50): 19.7 nM; IC50 ([4]; A431, 3 days, read-out: IC50): 4.99 nM; IC50 ([5]; SW620, 3 days, read-out: IC50): 1.95 nM; IC50 ([6]; BxPc-3, 3 days, read-out: IC50): 3.97 nM
